± gives the expanded uncertainty stated by the source.
How the values were obtained:
[1] = xn = mol fraction of the nth substance listed; settings: 298.15 K, 101 kPa, Liquid; for viscosity: Capillary tube (Ostwald / Ubbelohde) method
[2] = 298.15 K, 101.33 kPa, Liquid; for viscosity: Capillary tube (Ostwald / Ubbelohde) method
[3] = mn = molality of the nth substance listed, in mol/kg; settings: 298.15 K, 101 kPa, Liquid; for speed of sound: Pulse-echo method

N#CCCCCC#N [hexanedinitrile] + CC#N
[1]
Settings | mass density [kg/m3] | viscosity [mPa·s]
x2 = 0.5 | 892.51 ± 0.34 | 1.61 ± 0.012
x2 = 0.6 | 880 ± 0.36 | 1.41 ± 0.01
x2 = 0.7 | 870 ± 0.37 | 1.057 ± 0.008
x2 = 0.8 | 848.59 ± 0.4 | 0.684 ± 0.005
x2 = 0.9 | 818.58 ± 0.44 | 0.506 ± 0.004

CC#N [acetonitrile]
[2]
Settings | mass density [kg/m3] | viscosity [mPa·s]
– | 776.85 ± 0.66 | 0.341 ± 0.004

N#CCCCCC#N [hexanedinitrile]
[2]
Settings | mass density [kg/m3] | viscosity [mPa·s]
– | 975.26 ± 0.28 | 5.99 ± 0.06

Cc1ccc2ccc3ccc(C)nc3c2n1.Cc1ccc2ccc3ccc(C)nc3c2n1.[Cu+2].[O-][Cl+3]([O-])([O-])[O-].[O-][Cl+3]([O-])([O-])[O-] [bis-(2,9-dimethyl-1,10-phenanthroline) copper perchlorate] + CC#N
[3]
Settings | mass density [kg/m3] | speed of sound [m/s]
m1 = 0.02474 | 792.91 ± 0.51 | 1273.2 ± 0.99
m1 = 0.03841 | 801.84 ± 0.5 | 1274.5 ± 1
m1 = 0.05937 | 815.69 ± 0.49 | 1275.9 ± 1.1
m1 = 0.08169 | 830.27 ± 0.48 | 1277.3 ± 1.1
m1 = 0.1218 | 857.14 ± 0.46 | 1279.7 ± 1.1

CC#N.CC#N.CC#N.CC#N.[Cu+].[O-][Cl+3]([O-])([O-])[O-] [tetraacetonitrile copper perchlorate] + CC#N
[3]
Settings | mass density [kg/m3] | speed of sound [m/s]
m1 = 0.02538 | 787.25 ± 0.5 | 1272.1 ± 0.98
m1 = 0.03962 | 793.19 ± 0.49 | 1273.7 ± 0.99
m1 = 0.0589 | 801.28 ± 0.49 | 1275 ± 1
m1 = 0.08537 | 812.53 ± 0.48 | 1276.7 ± 1
m1 = 0.1254 | 828.76 ± 0.46 | 1278.5 ± 1.1

CCCC[N+](CCCC)(CCCC)CCCC.[O-][Cl+3]([O-])([O-])[O-] [tetrabutylammonium perchlorate] + CC#N
[3]
Settings | mass density [kg/m3] | speed of sound [m/s]
m1 = 0.02616 | 783.32 ± 0.5 | 1272.4 ± 0.98
m1 = 0.04068 | 786.97 ± 0.5 | 1273.2 ± 0.99
m1 = 0.06312 | 792.62 ± 0.5 | 1275.2 ± 1
m1 = 0.09762 | 801.31 ± 0.49 | 1276.8 ± 1
m1 = 0.1502 | 814.61 ± 0.49 | 1278.2 ± 1.1

CC#N [acetonitrile] + N#CCCCCC#N
[1], x1 = 1
Settings | mass density [kg/m3] | viscosity [mPa·s]
– | 776.85 ± 0.5 | 0.341 ± 0.003

CCCC[N+](CCCC)(CCCC)CCCC.O=[N+]([O-])[O-] [tetrabutylammonium nitrate] + CC#N
[3]
Settings | mass density [kg/m3] | speed of sound [m/s]
m1 = 0.02174 | 781.56 ± 0.5 | 1272.7 ± 0.97
m1 = 0.04144 | 785.96 ± 0.5 | 1273.7 ± 0.99
m1 = 0.06482 | 791.21 ± 0.5 | 1275.2 ± 1
m1 = 0.08753 | 796.37 ± 0.49 | 1276.6 ± 1
m1 = 0.1139 | 802.45 ± 0.49 | 1279.3 ± 1.1

O=[N+]([O-])[O-].[Ag+] [silver nitrate] + CC#N
[3]
Settings | mass density [kg/m3] | speed of sound [m/s]
m1 = 0.0283 | 785.04 ± 0.5 | 1272 ± 0.97
m1 = 0.04474 | 789.86 ± 0.49 | 1273.5 ± 0.98
m1 = 0.06947 | 797.11 ± 0.48 | 1275.3 ± 0.99
m1 = 0.09727 | 805.38 ± 0.48 | 1277.7 ± 1
m1 = 0.1285 | 814.46 ± 0.47 | 1279.5 ± 1
